Data reported in patent publication US8592405B2, “Synergistic antimicrobial composition” (Dow Global Technologies LLC, priority 2009, dated 2013).
Where “and” joins values, the source holds several entries; their conditions need not be identical. Identical values can stand only once.

How the values were obtained:
Type in all cases: cell-based
Aspergillus niger (An) = experiment: Fungal efficacy testing, modified ASTM 5590 (12-well, dry paint film); conditions: three weeks; for % inhibition: at the Total conc; for Total conc, ppm: total biocide in paint taken as minimum inhibitory concentration, 30 C
Method: (§1) Samples of white acrylic latex paint free of biocides were prepared in 50 ml aliquots. Each biocide was post added to give the necessary active ingredient concentration in the paint. The total biocides concentrations tested were 750, 1500, 2500 and 5000 ppm. After biocides addition, each sample was hand mixed for a minimum of 30 sec, followed by a 3 min run on the paint shaker (RED DEVIL). Each of the paint samples as well as a control sample (containing no biocide) were used to prepare films on black plastic-vinyl chloride/acetate copolymer panels (LENETA, Mahwah, N.J.) using a 3 mil bird bar applicator. The panels were thoroughly dried for 5 days avoiding direct exposure to sunlight. Square discs (15 mm^2) were cut out from each panel and were used as the substrate for fungal and algal efficacy tests. This sample size allowed for an agar border when the sample disc was placed into the well of the test plate.
(§2) The appropriate media (BOLD'S 3N for Chlorophytes, BG-11 for Cyanobacteria, and PDA for fungi) were used to support microbial growth. The test plates were maintained at room temp (25° C.-26° C.), in a cycled light-dark environment, for 3 weeks for algae. Plates for fungal challenge tests were maintained at 30C for three weeks. At the end of incubation period the samples were scored for percent area covered by visible microbial growth.
ASTM 5590 is a standard accelerated test method for determining resistance of various coatings (including paints) to fungal defacement. To accommodate for high-throughput screening, this method was scaled down from petri plates to 12-well plates. To set up the test, an agar plug was placed at the bottom of each well of the sterile 12-well plate. A single coupon was placed with a pair of sterile forceps at the center of the agar plug (on top) with the painted surface facing upwards. Each well was inoculated with 150 μl of organism (1×10^6 cfu/ml) making sure that the whole surface (paint film as well as the agar surrounding it) was evenly covered. The plates were incubated at 30° C. in presence of moisture, for a period of three weeks. The total percent area covered was evaluated and recorded at the end of each week after the 2nd week and recorded in increments of 5%. […]

[1] = system: Aa + Ap (Alternaria alternata + Aureobasidium pullulans); experiment: Fungal efficacy testing, modified ASTM 5590 (6-well, mixed inoculum, Example 4); conditions: four weeks; for Total conc, ppm: Aa + Ap mixed inoculum, NE = no end point at the concentration tested; for % inhibition: Aa + Ap, at the Total conc
Method: [The source words this procedure for another target and reports this target under the same test.] (§3) The SI is calculated based on F. C. Kull et.
A single or blend of biocides was post added into white acrylic latex paint free of biocides to give a maximum total active ingredient/s concentration tested. This paint was then diluted with a biocide free acrylic latex paint at concentrations range of 75 to 12.5% w/w to give desired concentrations for the testing. Depending on the type of biocide blends tested, the total biocides concentrations varies from 200 to 5000 ppm. After biocides addition or dilution each sample was hand mixed for at least a minute until uniformity is achieved. Each of the paint samples as well as a control sample (containing no biocide) were used to prepare films on black plastic-vinyl chloride/acetate copolymer panels (LENETA, Mahwah, N.J.) using a 3 mil bird bar applicator. The panels were thoroughly dried for at least 2 days avoiding direct exposure to sunlight. Square discs (0.5 inch^2, 13 mm^2) were cut out from each panel and were used as the substrate for fungal and algal efficacy tests. This sample size allowed for an agar border when the sample disc was placed into the well of the test plate. Each sample was tested in duplicate
as §2, with “for four” for “for 3”, “at 30 C” for “at 30C”, “for four” for “for three”, “of the” for “of”
ASTM 5590 is a standard accelerated test method for determining resistance of various coatings (including paints) to fungal defacement. To accommodate for high-throughput screening, this method was scaled down from petri plates to 6-well plates. To set up the test, an agar plug was placed at the bottom of each well of the sterile 6-well plate. A single coupon was placed with a pair of sterile forceps at the center of the agar plug (on top) with the painted surface facing upwards. Fungal inoculums were prepared by mixing equal concentrations (1×10^6 cfu/ml) and equal volumes (depending on number of samples to be tested) of like growing organisms. Cladosporium herbarum was mixed with Aureobasidium pullulans. Aspergillus niger was mixed with Penicillium funiculosum. Alternaria alternata was mixed with Trichoderma viride. Each well was inoculated with 400 μl of organism mixture (1×10^6 cfu/ml) making sure that the whole surface (paint film as well as the agar surrounding it) was evenly covered. The plates were incubated at 30° C. in presence of moisture, for a period of four weeks. The total percent area covered was evaluated and recorded at the end of each week after the 2nd week and recorded in increments of 5%.

[2] = system: Aureobasidium pullulans (Ap); experiment: Fungal efficacy testing, modified ASTM 5590 (12-well, dry paint film); conditions: three weeks; for % inhibition: at the Total conc; for Total conc, ppm: total biocide in paint taken as minimum inhibitory concentration, 30 C
Method: as §1, §2
(§4) ASTM 5590 is a standard accelerated test method for determining resistance of various coatings (including paints) to fungal defacement. To accommodate for high-throughput screening, this method was scaled down from petri plates to 12-well plates. To set up the test, an agar plug was placed at the bottom of each well of the sterile 12-well plate. A single coupon was placed with a pair of sterile forceps at the center of the agar plug (on top) with the painted surface facing upwards. Each well was inoculated with 150 μl of organism (1×10^6 cfu/ml) making sure that the whole surface (paint film as well as the agar surrounding it) was evenly covered. The plates were incubated at 30° C. in presence of moisture, for a period of three weeks. The total percent area covered was evaluated and recorded at the end of each week after the 2nd week and recorded in increments of 5%.
as §3

[3] = system: Cladosporium herbarum (Ch); experiment: as above; conditions: three weeks; for % inhibition: at the Total conc; for Total conc, ppm: total biocide in paint taken as minimum inhibitory concentration, 30 C
Method: as §1, §2, §4, §3

[4] = system: Alternaria alternata (Aa); experiment: as above; conditions: three weeks; for % inhibition: at the Total conc; for Total conc, ppm: total biocide in paint taken as minimum inhibitory concentration, 30 C
Method: as §1, §2, §4, §3

[5] = system: Penicillium funiculosum (Pf); experiment: as above; conditions: three weeks; for % inhibition: at the Total conc; for Total conc, ppm: total biocide in paint taken as minimum inhibitory concentration, 30 C
Method: as §1, §2, §4, §3

[6] = system: Stachybotris chartarum (Sc); experiment: as above; conditions: three weeks; for % inhibition: at the Total conc; for Total conc, ppm: total biocide in paint taken as minimum inhibitory concentration, 30 C
Method: as §1, §2, §4, §3

CCCCCCCCn1sc(Cl)c(Cl)c1=O [DCOIT, 4,5-dichloro-2-n-octyl-4-isothiazolin-3-one]
% inhibition (Aspergillus niger (An)): 75% | Total conc, ppm (Aspergillus niger (An)): 5000 ppm | Total conc, ppm [1]: 862.5 ppm | % inhibition [1]: 100% | % inhibition [2]: 77.5% | Total conc, ppm [2]: 2500 ppm | % inhibition [3]: 67.5% | Total conc, ppm [3]: 5000 ppm | % inhibition [4]: 87.5% | Total conc, ppm [4]: 5000 ppm | % inhibition [5]: 82.5% | Total conc, ppm [5]: 2500 ppm | % inhibition [6]: 32.5% | Total conc, ppm [6]: 5000 ppm

Cc1ccc(S(=O)(=O)C(I)I)cc1 [DIMTS, diiodomethyl-p-tolylsulfone]
% inhibition (Aspergillus niger (An)): 75% | Total conc, ppm (Aspergillus niger (An)): 750 ppm | Total conc, ppm [1]: 1250 ppm | % inhibition [1]: 100% | % inhibition [2]: 77.5% | Total conc, ppm [2]: 2500 ppm | % inhibition [3]: 72.5% | Total conc, ppm [3]: 750 ppm | % inhibition [4]: 77.5% | Total conc, ppm [4]: 2500 ppm | % inhibition [5]: 82.5% | Total conc, ppm [5]: 1500 ppm | % inhibition [6]: 50% | Total conc, ppm [6]: 750 ppm

CN(C)C(=O)Nc1cccc(C(F)(F)F)c1 [Fluometuron, 1,1-dimethyl-3-(α,α,α-trifluoro-m-tolyl)urea]
Total conc, ppm (Aspergillus niger (An)): 2500 ppm and 5000 ppm | Total conc, ppm [1]: 5000 ppm | % inhibition [1]: 0% | Total conc, ppm [2]: 2500 ppm and 5000 ppm | Total conc, ppm [3]: 2500 ppm and 5000 ppm | Total conc, ppm [4]: 2500 ppm and 5000 ppm | Total conc, ppm [5]: 2500 ppm and 5000 ppm | % inhibition [6]: 65% | Total conc, ppm [6]: 5000 ppm
